This is an account of results in patent US6599933B2, “Tocotrienol derivative, process for producing the same and γ-CEHC delivering agent” (Kenko Corporation, priority 2000, dated 2003).

For data set [1] the following is noted: racemic γ-CEHC administered to SD rat intravenously; cited from earlier work.
Data set [2] can be described thus: Hydrolyzability test in rat liver microsome solution. It is filed as in vitro ADME. How it is done:
(§1) d-α-tocotrienol N,N-dimethylaminoacetate hydrochloride (Example 5:hereinafter, d-α-T3DMA), d-α-tocotrienol N-methylaminoacetate hydrochloride (Example 2:hereinafter, d-α-T3MA), d-γ-tocotrienol N,N-dimethylaminoacetate hydrochloride (Example 6:hereinafter, d-γ-T3DMA), d-γ-tocotrienol N-methylaminoacetate hydrochloride (Example 4:hereinafter, d-γ-T3MA), or d-γ-tocotrienolaminoacetate hydrochloride (Example 3:hereinafter, d-γ-T3AA) were added to a solution of SD rat liver microsome and rat plasma in an isotonic phosphate buffer, and d-α-tocotrienol and d-γ-tocotrienol produced in the reaction solution at 37° C. with time were measured by high performance liquid chromatography (HPLC).
(§2) As Comparative Example, a hydrolysis test was performed on d-α-tocotrienolsuccinic acid ester (hereinafter, d-α-T3S) and d-γ-tocotrienolsuccinic acid ester (hereinafter, d-γ-T3S) similarly.
(§3) HPLC conditions: Column was CAPCELL PAK UG120, a mobile phase was methanol-acetonitrile (5:5 v/v), a rate was 0.7 ml/min, and detection was carried out by absorbance of 283 nm and fluorescent intensity (excitation 298 nm, fluorescent 325 nm).
(§4) Dynamic parameters of production of d-α-tocotrienol and d-γ-tocotrienol in a solution of rat liver microsome and rat plasma according to Micaelis-Menten model are shown in Tables 4 and 5.
Background: Liver microsomes are a subcellular fraction often used to study metabolism.

A short description of data set [3]: Hydrolyzability test in rat plasma solution. It is filed as in vitro ADME. The conditions noted are these: 37° C., production of tocotrienol, Michaelis-Menten model. On the procedure:
as §1, §2, §3, §4

Data set [4] in a line: Animal Test Example 1: kinetics in rat after intravenous administration (plasma, liver, heart, kidney). More on the design: species or system SD rat. The conditions noted are these: in vivo, 25 mg/kg. How it is done: 1) SD male rats (weighing 260-285 g) were used while a diet was changed to crystal sugar from 16 hours before drug administration. d-α-T3DMA (Example 5), d-γ-T3DMA (Example 6), d-α-tocotrienol (hereinafter, d-α-T3), or d-γ-tocotrienol (hereinafter, d-γ-T3) was administered into left femoral vein under slight anesthesia. A solution of d-α-T3DMA or d-γ-T3DMA to be administered was used by dissolving it in distilled water containing 10% propylene glycol, and filtering with membrane filter (0.22 μm). A solution of d-α-T3 and d-γ-T3 to be administered was used by dissolving it using a nonionic surfactant HCO-60. Administration amounts were set to be tocotrienol equivalent 25 mg/kg, respectively. 0.25, 0.5, 1, 2, 4, 8 and 24 hours after administration, blood was taken under ether anesthesia, and liver, heart and kidney were taken. Plasma was rapidly separated and taken. A 1.15% potassium chloride solution was added at a 3-fold amount of each organ weight was added thereto, which was homogenated. 0.7 ml of ethanol was added to 0.2 ml of each sample, the mixture was stirred for 2 minutes, centrifuged, and the supernatant was analyzed by the aforementioned HPLC.

Data set [5] can be described thus: Test Examples 2 and 3: S-γ-CEHC kinetics in plasma after intravenous administration to rat. It is filed as in vivo, SD rat. On the procedure:
A SD male rat, 7 weeks old, was used. A solution of γ-T3DMA to be administered was prepared into a d-γ-tocotrienol equivalent 25 mg/ml aqueous solution. The solution was administered intravenously into left femoram vein under slight ether anesthesia, blood was taken from external jugular vein with an injector for tuberculin treated with heparin with time, and plasma was taken after centrifugation. Plasma was stored at −80° C. till HPLC measurement. A γ-CEHC level in plasma was measured by the HPLC method which can fractionally quantitate optical isomers S-γ-CEHC and R-γ-CEHC (Hattori A., Fukushima T., Imai K., Anal. Biochem., 281, 209-215 (2000)). […] R-γ-CEHC was not detected in plasma after administration and only S-γ-CEHC was detected therein. […] Here, a S-γ-CEHC level after administration of racemic γ-CEHC is a value at racemic γ-CEHC 1 mg/kg. […] S-γ-CEHC in plasma was rapidly elevated after administration of γ-T3DMA and reached Cmax 1 hour after administration. […] Mean Retention Time (MRT) of a γ-T3DMA administered group is 6.64 hr and is an about 7-fold value as compared with MRT 1.00 hr of a racemic γ-CEHC administered group. From the foregoing, it can be understood that γ-T3DMA can enhance the S-γ-CEHC level in the living body and, further, can maintain the S-γ-CEHC level continuously for longer period of time.
The pharmacokinetics parameter represents an average of four animals and standard deviation. A dose is γ-T3 equivalent 25 mg/kg. F(%) was obtained by the following equation: […]
a Obtained by the Following Equation [formula]
wherein AUCS-γ-CEHC,γ-T3DM^Plasma and AUCS-γ-CEHC,racemicγ-CEHC^Plasma means AUC of S-γ-CEHC after administration of γ-T3DMA and racemic γ-CEHC, respectively, and Dγ-T3DMA and Dracemic γ-CEHC means a dose of γ-T3DMA and racemic γ-CEHC, respectively.
b Obtained by the Following Equation [formula]
wherein AUCS-γ-CEHC,γ-TDMA^Plasma means AUC of S-γ-CEHC after administration of γ-TDMA, and Dγ-TDMA means a dose of γ-TDMA.
γ-CEHC kinetics in plasma was studied by administering an aqueous γ-TDMA solution into rat's vein according to the same test procedure as those of Test Example 2. The γ-CEHC in plasma was all S-γ-CEHC and R-γ-CEHC was not detected. […] A level in plasma was rapidly elevated after administration, reached Cmax after 1 hr, and a S-γ-CEHC level was elevated clearly. […] Thus, it was shown that a level of S-γ-CEHC in the living body is efficiently elevated. Mean Retention Time (MRT) of a γ-TDMA administered group was 8.19 hr and was about 8-fold value as compared to MRT 1.00 hr of a racemic γ-CEHC administered group.

The nature of the next data set: Water-solubility test. To be noted: 0.250 mmol in 5 ml distilled water, stirred at 20° C. for 24 hours, HPLC.
Setting [6] is: liver microsome, 37° C., production of tocotrienol, Michaelis-Menten model.
Where [7] appears, read: liver microsome, 37° C., production of tocotrienol, Michaelis-Menten model, read-out: Km.

Molecules are shown by their SMILES.

For the molecule `Cc1c(O)cc2c(c1C)O[C@@](C)(CCC(=O)O)CC2` [R-γ-CEHC], in data set [1], the “biological half-life in plasma” value is on record as “about 1 hour”.
In the case of `Cc1c(O)cc2c(c1C)OC(C)(CCC(=O)O)CC2` (stereo not shown) [S-γ-CEHC], the “biological half-life in plasma” value in data set [1] is listed as at most 2 minutes.
As usually defined, the Km is the concentration of substrate that gives half-maximal velocity. As usually defined, the Vmax is the rate approached at saturating substrate. For `CC(C)=CCC/C(C)=C/CC/C(C)=C/CC[C@]1(C)CCc2c(C)c(OC(=O)CN(C)C)c(C)c(C)c2O1.Cl` [d-α-T3DMA, d-α-tocotrienol N,N-dimethylaminoacetate hydrochloride], in data set [2], the Km was found to be 5970 µM and the Vmax/Km was 0.02455 min⁻¹. Moreover, in data set [2] (setting [6]), the Vmax is 0.0001465 M/min. Further, in data set [3], the Km was 793 µM and the maximal velocity (Vmax) stood at 9.187e-08 M/min. Moreover, the “bioavailability of d-α-T3 in liver” value in data set [4] was 130%.
For the molecule `CNCC(=O)Oc1c(C)c(C)c2c(c1C)CC[C@@](C)(CC/C=C(\C)CC/C=C(\C)CCC=C(C)C)O2.Cl` [d-α-T3MA, d-α-tocotrienol N-methylaminoacetate hydrochloride], the Michaelis constant (Km) in data set [2] turned out to be 109 µM; in data set [3], 1550 µM. Besides, the Vmax/Km in data set [2] was determined as 0.01111 min⁻¹. The Vmax stood at 1.878e-06 M/min in data set [2] (setting [6]) and 5.808e-07 M/min in data set [3].
Taken in the same sequence, the figures for `CC(C)=CCC/C(C)=C/CC/C(C)=C/CC[C@]1(C)CCc2c(C)c(OC(=O)CCC(=O)O)c(C)c(C)c2O1` [d-α-T3S, d-α-tocotrienolsuccinic acid ester, reference compound] were 30.3 µM, 506 µM, 0.001846 min⁻¹, 5.588e-08 M/min and 4.946e-08 M/min.
With `CC(C)=CCC/C(C)=C/CC/C(C)=C/CC[C@]1(C)CCc2cc(OC(=O)CN)c(C)c(C)c2O1.Cl` [d-γ-T3AA, d-γ-tocotrienol aminoacetate hydrochloride], the figures for the Vmax in data set [2] (setting [6]) and in data set [3] were 7.716e-05 M/min and 3.594e-05 M/min, respectively. Further, the Michaelis constant (Km) came to 1560 µM in data set [2] (setting [7]) and 5510 µM in data set [3].
With `CC(C)=CCC/C(C)=C/CC/C(C)=C/CC[C@]1(C)CCc2cc(OC(=O)CN(C)C)c(C)c(C)c2O1.Cl` [d-γ-T3DMA, d-γ-tocotrienol N,N-dimethylaminoacetate hydrochloride], the Vmax is 0.000323 M/min in data set [2] (setting [6]) and 7.592e-06 M/min in data set [3]. For the same molecule, the Km was found to be 5580 µM in data set [2] (setting [7]) and 786 µM in data set [3]. Further, the “R-γ-CEHC in plasma after administration” value in data set [5] (intravenous, HPLC separating optical isomers) is “not detected”. Further, the “MRT as fold of MRT of racemic γ-CEHC administered group” value in data set [5] (intravenous, S-γ-CEHC in plasma) is “about 7 fold”.
As for `CNCC(=O)Oc1cc2c(c(C)c1C)O[C@](C)(CC/C=C(\C)CC/C=C(\C)CCC=C(C)C)CC2.Cl` [d-γ-T3MA, d-γ-tocotrienol N-methylaminoacetate hydrochloride], the results for the Vmax in data set [2] (setting [6]) and in data set [3] were 0.0001204 M/min and 5.178e-05 M/min, respectively. Further, the Km came out at 2100 µM in data set [2] (setting [7]) and 12700 µM in data set [3].
As to `CC(C)=CCC/C(C)=C/CC/C(C)=C/CC[C@]1(C)CCc2cc(OC(=O)CCC(=O)O)c(C)c(C)c2O1` [d-γ-T3S, d-γ-tocotrienolsuccinic acid ester, reference compound], in data set [2], the Michaelis constant (Km) came to 22.1 µM and the Vmax/Km is 0.03244 min⁻¹. Further, the Vmax in data set [2] (setting [6]) was found to be 7.161e-07 M/min. Also, in data set [3], the Km amounted to 1050 µM and the Vmax is 1.945e-06 M/min.
Regarding `CC(C)=CCC/C(C)=C/CC/C(C)=C/CC[C@]1(C)CCc2cc(O)c(C)c(C)c2O1` [d-γ-tocotrienol], the “solubility in distilled water” value in “Water-solubility test” is given as “below detection limit of HPLC”.
For `Cc1c(OC(=O)CN(C)C)cc2c(c1C)O[C@](C)(CCC[C@H](C)CCC[C@H](C)CCCC(C)C)CC2.Cl` [γ-TDMA, d-γ-tocopheryl N,N-dimethylaminoacetate hydrochloride], in data set [5] (in vivo, iv), the “MRT as fold of MRT of racemic γ-CEHC administered group” value is given as “about 8 fold” and the “R-γ-CEHC in plasma after administration” value is “not detected”.
